Legend:
[1] = Inhibition of HSP70 by fluorescence polarization assay
[2] = system: HCT-116; test: Antiproliferative activity against human HCT116 cells; assay type: functional

Ki [1] | GI50 [2] | SMILES
8300 nM |  | CNc1nc2c(N)ncnc2n1[C@@H]1O[C@H](CO)[C@@H](O)[C@H]1O
450 nM |  | CNc1nc2c(N)ncnc2n1[C@@H]1O[C@H](COCc2cccnc2)[C@@H](O)[C@H]1O
1100 nM |  | CNc1nc2c(N)ncnc2n1[C@@H]1O[C@H](COCc2ccccc2)[C@@H](O)[C@H]1O
1050 nM |  | Nc1ncnc2c1nc(NCc1ccc(Cl)c(Cl)c1)n2[C@@H]1O[C@H](COCc2ccccc2)[C@@H](O)[C@H]1O
4070 nM |  | CNc1nc2c(N)ncnc2n1[C@@H]1O[C@H](COCC2CCCCC2)[C@@H](O)[C@H]1O

Continued, compound first:

SMILES | Ki [1] | GI50 [2]
Nc1ncnc2c1nc(NCc1ccc3ccccc3n1)n2[C@@H]1O[C@H](CO)[C@@H](O)[C@H]1O | 4320 nM | 
COC[C@H]1O[C@@H](n2c(NCc3ccc(Cl)c(Cl)c3)nc3c(N)ncnc32)[C@H](O)[C@@H]1O | 1440 nM | 
N#Cc1ccc(COC[C@H]2O[C@@H](n3c(NCc4ccc5ncccc5c4)nc4c(N)ncnc43)[C@H](O)[C@@H]2O)cc1 | 310 nM | > 80000 nM
Nc1ncnc2c1nc(NCc1ccc(Cl)c(Cl)c1)n2[C@@H]1O[C@H](CO)[C@@H](O)[C@H]1O | 4310 nM | 26000 nM
Nc1ncnc2c1ncn2[C@@H]1O[C@H](COP(=O)(O)OP(=O)(O)O)[C@@H](O)[C@H]1O [ADENOSINE DIPHOSPHATE] | 110 nM | 
Nc1ncnc2c1nc(N)n2[C@@H]1O[C@H](CO)[C@@H](O)[C@H]1O | 4460 nM | 50 nM
N#Cc1ccc(COC[C@H]2O[C@@H](n3c(NCc4ccc(Cl)c(Cl)c4)nc4c(N)ncnc43)[C@H](O)[C@@H]2O)cc1 | 120 nM | 5000 nM
Nc1ncnc2c1nc(NCc1ccc3ncccc3c1)n2[C@@H]1O[C@H](CO)[C@@H](O)[C@H]1O | 1290 nM | > 80000 nM

From ChEMBL document CHEMBL1781881, “Adenosine-derived inhibitors of 78 kDa glucose regulated protein (Grp78) ATPase: insights into isoform selectivity” (J Med Chem, 2011)
